# Columns and labels:
# [1] = Reaction with L-lysine (amino acids) to mimic skin binding; colour and UV-VIS of the dye formed; details: for color of solution 1 hr after the addition of L-lysine: 1 hr after L-lysine; for color produced upon reaction with amino acids: Additional Color Combinations; for color of solution after the addition of L-lysine: after addition of L-lysine ("Add Lysine"/"Lysine added"); for color of L-lysine reaction solution after dilution: after dilution (vial at left); for color of solution before the addition of L-lysine: before L-lysine (Time 0); for color of dye produced by reaction with L-lysine / λmax of dye produced after reaction with L-lysine: methanol, 2 equivalents L-lysine, room temperature; for color of dye produced by reaction with L-lysine: open air; for λmax of dye produced after reaction with L-lysine: open air (44 hours for Compound 1, overnight for others)
# Method: Compound 1 was weighed out (0.03 mmol) into a small vial equipped with a magnetic stir bar. To this vial, 1 mL of methanol was added and stirred until solubilized. L-lysine was then added to the stirred solution (2 equivalents) and the reaction mixture was capped and stirred over 44 hours at room temperature. A needle was punctured through the vial cap to ensure the reaction is conducted under open air. This method produced a yellow dye with a λmax=436 nm. See also FIGS. 26A and 26B.
# (§1) Compound 10 was weighed out (n=0.03 mmol) into a small vial equipped with a magnetic stir bar. To this, 1 mL of methanol was added and stirred until solubilized. L-lysine was then added to the stirred solution (2 equivalents) and the reaction mixture was capped and stirred overnight at room temperature. A needle was punctured through the vial cap to ensure the reaction is conducted under open air. This produced a yellow dye with a λmax=433 nm.
# as §1, with “14” for “10”, “produces” for “produced”, “red” for “yellow”, “λmax=480” for “λmax=433”
# (§2) Compound 11 was weighed out (n=0.03 mmol) into a small vial equipped with a magnetic stir bar. To this, 2.5 mL of methanol was added followed by L-lysine (0.06 mmol, 2 equivalents). The reaction mixture was stirred for 24 hours at room temperature under open air. Compound 11 and Compound 11+lysine were diluted with methanol to make 0.06 mM solutions for UV-VIS characterization.
# as §2, with “13” for “11”, “1.5” for “2.5”, “13+lysine” for “11 and Compound 11+lysine”
# as §2, with “5” for “11”, “(n=0.05” for “(n=0.03”, “(0.1” for “(0.06”, “5+lysine” for “11+lysine”, “0.1” for “0.06”
# (§3) Compound 7 was weighed out (n=0.04 mmol) into a small vial equipped with a magnetic stir bar. To this, 2 mL of methanol was added followed by L-lysine (0.08 mmol, 2 equivalents). The reaction mixture was stirred for 24 hours at room temperature under open air. Compound 7 and Compound 7+lysine were diluted with methanol to make 0.1 and 0.15 mM solutions, respectively, for UV-VIS characterization.
# as §3, with “Compound 9” for “Compound 7”, “out (n=0.03” for “out (n=0.04”, “this, 1.5” for “this, 2”, “L-lysine (0.06” for “L-lysine (0.08”, “Compound 9+lysine” for “Compound 7+lysine”
# as §2, with “Genipin” for “Compound 11”, “1.5” for “2.5”, “Genipin+lysine” for “Compound 11 and Compound 11+lysine”
# Compound 12 was weighed out (n=0.03 mmol) into a small vial equipped with a magnetic stir bar. To this, 1.5 mL of methanol was added followed by L-lysine (0.06 mmol, 2 equivalents). The reaction mixture was stirred for 24 hours at room temperature under open air. […]
# [2] = Color profile of single, binary and ternary dye compositions (Table 5); details: total dye in the final formulation 0.008-0.40 mmol/g
Structure (SMILES),color produced upon reaction with amino acids [1],color of solution after the addition of L-lysine [1],color of L-lysine reaction solution after dilution [1],color of solution before the addition of L-lysine [1],color of dye produced by reaction with L-lysine [1],λmax of dye produced after reaction with L-lysine [1] [nm],colors observed with L-lysine (FIG. 33) [1],also measured
COC(=O)C1=COC(O)C2C(C=O)=CCC12 (stereo not drawn) [Compound 1],vibrant yellow,dark yellow,yellow,colorless,yellow,436,yellow,color of solution 1 hr after the addition of L-lysine [1]: dark brown; color of solution at 44 hours after the addition of L-lysine ([1]; 44 hours): brown
COC(=O)C1=COC(OC(C)=O)C2C(C=O)=CCC12 (stereo not drawn) [Compound 2],,,,,,,,Color when reacted with amino acids [2]: Vibrant Red
COC(=O)C1=COC(O)[C@@H]2C(/C=C/c3ccccc3)=CC[C@H]12 (stereo partly drawn) [Compound 7],vibrant red,,,,,,,
COC(=O)C1=COC(O)[C@@H]2C(/C=C/c3ccc([N+](=O)[O-])cc3)=CC[C@H]12 (stereo partly drawn) [Compound 9],vibrant red,,,,,,,
COC(=O)C1=COC(O)C2C1CC1COC12O (stereo not drawn) [Compound 10],,light brown,,,yellow,433,,
CCOC(=O)C(=CC1=CCC2C(C(=O)OC)=COC(OC(C)=O)C12)C(=O)OCC (stereo not drawn) [Compound 11],vibrant red,,,,,,,
COC(=O)C1=COC(O)C2C(C(=O)O)=CCC12 (stereo not drawn) [Compound 12],vibrant green,light yellow,light yellow,colorless,,,light yellow,color of solution at 18 hours after the addition of L-lysine ([1]; 18 hours): dark brown
CCN(CC)C(=O)C1=CCC2C(C(=O)OC)=COC(O)C12 (stereo not drawn) [Compound 13],vibrant orange,,,,,,,
"O=C1C(O)=C(c2ccccc2)C(=O)c2ccccc21 [Compound 14, 2-Hydroxy-3-phenyl-1,4-Naphthalenedione]",,,,,red,480,,
"COC(=O)C1=CO[C@@H](O)[C@@H]2C(CO)=CC[C@H]12 [genipin, reference compound]",,yellow,light blue,colorless,,,light blue,color of solution 1 hr after the addition of L-lysine [1]: dark blue

# — patent publication US20240033200A1, “SEMI-PERMANENT TATTOOS” (Inkbox Ink Inc., priority 2020, published 2024)
